Measured values as given in paper PMC6566782, “Prodrugs for Skin Delivery of Menahydroquinone-4, an Active Form of Vitamin K2(20), Could Overcome the Photoinstability and Phototoxicity of Vitamin K2(20)” (International Journal of Molecular Sciences, 2019).

Key:
[1] = tested on: HaCaT cells; test: Intracellular ROS generation assay (DCFH-DA) with or without UVA irradiation; format: cell-based, Human; settings: UVA irradiation 15 J/cm^2
Method: (§1) The in vitro phototoxicity of MK-4 and MKH derivatives were assessed by measuring the intracellular ROS generation and the viability of human epidermal keratinocyte cells (HaCaT) after UVA irradiation in the presence or absence of MK-4 and MKH derivatives. Intracellular ROS generation was determined using the cell permeable probe 2′,7′-dichlorofluorescein diacetate (DCFH-DA), which rapidly reacts with hydroxyl radicals. Cells without drug treatment or UVA irradiation were used as the control. ROS generation and cell viability are shown in Figure 5 and Figure 6, respectively.
Intracellular ROS generation was measured using 2′,7′-dichlorofluorescein diacetate (DCFH-DA; Invitrogen, Carlsbad, CA, USA) as a fluorescent probe. HaCaT cells were seeded at 1.0 × 10^5 cells/well in 96-well plates and cultured overnight. Thereafter, cells were washed with PBS and incubated with 10 µM DCFH-DA solution in PBS at 37 °C for 1 h. Following incubation, test compound solutions in PBS described above were added to each well and re-incubated for 1 h. After incubation, cells were irradiated with UVA at an irradiation intensity of 15 J/cm^2 and the fluorescence intensity (Ex: 485 nm, Em: 530 nm) was measured using an Infinite M200 PRO (Tecan Life Sciences).

[2] = Photostability in ethanol under monochromatic light of different wavelengths, LC-MS/MS; format: physicochemical; settings: 1 µM in ethanol, 25 °C
Method: To evaluate the effect of irradiation wavelength on photostability of MK-4 and MKH-ester derivatives, 1 μM solutions of MK-4, MKH-DMG, and MKH-SUC in ethanol were irradiated with a xenon light source monochromatic light at 279, 341, 373, 404, or 435 nm, and the concentration of each compound was measured by LC-MS/MS. The log of concentration of each compound was plotted against irradiation energy (Figure 3), and the rates and half-life energies of degradation were obtained from slopes (Table 2). […] Hydrolytic degradations of MKH-DMG and MKH-SUC to their corresponding monoesters were accelerated only at the short wavelength of 279 nm (Figure 3B,C).
(§2) Solutions of MK-4 and MKH derivatives in ethanol (1 µM) were irradiated with artificial sunlight (SOLAX 100 W XC-100 B, Seric Ltd., Tokyo, Japan) at 12,000 lx in quartz cells. Illuminance was measured using a digital luminometer (LX-1108, Mother Tool). Irradiation samples (1 µM in ethanol) were irradiated with artificial sunlight at 12,000 lx, and with monochromatic light (279, 341, 373, 404, and 435 nm) using a multi-wavelength irradiation spectrometer (MM 3, Bunkoukeiki Co., Ltd., Tokyo, Japan). Irradiation intensity was measured using an irradiation energy measurement power meter (MM 3, Bunkoukeiki Co., Ltd.).
(§3) LC-MS/MS was performed using an LCMS-8050 Liquid Chromatograph Mass Spectrometer (Shimadzu, Kyoto, Japan) and Shimadzu HPLC System (system controller (CBM-20A), pump (LD-20AD), degasser (DGU-20As), UV detector (SPD-20A), and auto injector (SIL-20AC HT)). Separations were performed on a CAPCELL PAK C18 UG120 (3 μm, 2.0 mm × 100 mm, Shiseido Co., Ltd., Tokyo, Japan) using a mobile phase of 10 mmol/L ammonium acetate and 0.1% acetic acid in methanol and water (97:3) at a flow rate of 0.4 mL/min. Column temperature was maintained at 40 °C. The mass spectrometer was equipped with an electrospray ionization and was run in positive ion mode. Identification and quantitation were based on MS/MS-multiple reaction monitoring mode using transition ions as follows: m/z 445 → 187 for the [M+H]^+ MK-4 adduct, m/z 445 → 187 for the [M + H]^+ chromenol adduct, 619 → 58 for the [M + H]^+ MKH-DMG adduct, m/z 532 → 58 for the [M + H]^+ MKH-mono-DMG adduct, m/z 664 → 187 for the [M + H]^+ MKH-SUC adduct, m/z 564 → 187 for the [M + H]^+ MKH-mono-SUC adduct, and m/z 461 → 81 for the [M + H]^+ MKO adduct.

[3] = Photostability in ethanol under artificial sunlight (12,000 lx), LC-MS/MS; format: physicochemical; settings: 1 µM in ethanol
Method: The relative irradiance of artificial sunlight at wavelengths of 300 to 800 nm is almost equal to that of natural sunlight, according to the manufacturer. […] MKH-SUC concentration decreased according to an apparent first order rate both with and without shading, although the rate of decrease was accelerated without shading. MKH-DMG and MKH-SUC were more photostable than MK-4 by ca. 50- and 3-fold, respectively.
as §2, §3

[4] = tested on: HaCaT cells; test: Cell viability assay (CellTiter-Glo) 24 h after UVA irradiation; format: cell-based, Human; settings: 24 h after UVA irradiation 15 J/cm^2
Method: as §1
HaCaT cells were seeded at 1.0 × 10^5 cells/well in 96-well plates and cultured overnight. Thereafter, cells were washed with PBS, and test compound solutions in PBS described above were added to each well and re-incubated for 1 h. After incubation, cells were irradiated with UVA at an irradiation intensity of 15 J/cm^2. After irradiation, cells were washed twice with PBS and replaced in culture medium. After 24 h incubation, cell viability was measured using a CellTiter-Glo® Luminescent Cell Viability Assay (Promega, Madison, WI, USA).

intracellular ROS level [1]: elevated in a dose-dependent manner
rate constant (k) of degradation ([2]; monochromatic light 279 nm): 0.533 J^−1·cm^2
rate constant (k) of degradation ([2]; monochromatic light 341 nm): 0.422 J^−1·cm^2
rate constant (k) of degradation ([2]; monochromatic light 373 nm): 0.151 J^−1·cm^2
rate constant (k) of degradation ([2]; monochromatic light 435 nm): 0.035 J^−1·cm^2
apparent first order rate constant (k) of degradation ([3]; artificial sunlight 12,000 lx, 25 °C): 8.239 h⁻¹
concentration change under shading ([3]; shading, 25 °C): unchanged under shading
main degradation product ([3]; sunlight irradiation (MKH-SUC also under shading)): MK-4 chromenol
half-life at 1 µM ([3]; ethanol solution in quartz cells, artificial sunlight 12,000 lx, 25 °C, read-out: half-life (t1/2) of degradation (converted)): 5.04 min
SMILES: CC(C)=CCC/C(C)=C/CC/C(C)=C/CC/C(C)=C/CC1=C(C)C(=O)c2ccccc2C1=O [MK-4, menaquinone-4, reference compound]
cell viability [4]: decreased dose-dependently
